Values joined by “and” are separate entries in the source; they are usually repeats but may differ in a detail not shown here. Equal entries are not always repeated.
Tested on: 521955-158-R2-J5-PDC complex spheroid growth
Experiment: Anticancer human tumor 521955-158-R2-J5-PDC patient-derived pancreatic carcinoma cell line growth inhibition [AhR]
Conditions: for viability, T/C: stronger effect = lower value
Source text: Multicellular complex tumor spheroid response to aryl hydrocarbon receptor antagonists in combination with a variety of drugs and investigational agents in selected tumor cell lines
The current study was undertaken to assess response to aryl hydrocarbon receptor antagonists in combination with standard-of-care drugs and investigational agents in solid tumor complex spheroid models. Complex spheroids include a stromal component modeled by human endothelial cells (HUVEC) and fibroblasts modeled by human mesenchymal stem cells (MSCs). The concentration ranges selected for each drug and investigational agent were based upon clinically achievable concentrations if the clinical Cmax of the agent was known.
Compounds. The drugs and investigational agents: BAY 2416964 (NSC825713), GNF351 (NSC835774), CH-223191 (NSC835775), CPI-455 (NSC825282), aza-TdCyd (NSC777586), decitabine (NSC127716), belinostat (NSC758774), entinostat (NSC756642), pevonedistat (NSC761192), tazemetostat (NSC777109), talazoparib (NSC765396), olaparib (NSC753686), selinexor (NSC780203), nedisertib (M3814, NSC802822), bortezomib (NSC756655), venetoclax (NSC766270), doxorubicin (NSC123127), elimusertib (BAY189344, NSC800525), ceralasertib (AZD6738, NSC777638), TAK-243 (NSC785004), alisertib (NSC759677), etoposide (NSC141540), topotecan (NSC609699), eribulin (NSC707389), gemcitabine (NSC613327), carboplatin (NSC241240), cisplatin (NSC119875), and SN-38 (NSC673596) were obtained from the National Cancer Institute (NCI) Developmental Therapeutics Program Chemical Repository (32). The FDA-approved anticancer drug set is available from the Developmental Therapeutics Program at https://dtp.cancer.gov/organization/dscb/obtaining/available plates.htm. […] The stock solutions were prepared in dimethyl sulfoxide (DMSO, Sigma-Aldrich, St. Louis, MO, cat. D2650), except for the platinum compounds which were prepared in saline (Quality Biological, Gaithersburg, MD, cat. 114-055-101), at 800-fold the tested concentration and stored at -70 degrees C prior to their use. All drugs and investigational agents were tested over a range starting from a high concentration at or near the clinical Cmax and decreasing in half-log increments. If the clinical Cmax for an agent had not been determined, the highest concentration tested was 10 microM (Table 1).
Cell Culture. All cells were maintained in an incubator at 37 degrees C and 5% CO2 with 95% humidity. The PDC lines were cultured according to standard operating procedures established by the NCI PDMR (https://pdmr.cancer.gov). Briefly, all PDCs were thawed and cultured in Matrigel-coated flasks prepared with a working solution of 1X Ham's F-12 nutrient mix, without supplementation (Invitrogen, Waltham, MA, cat. 11765054), 100 U/mL penicillin-streptomycin (Invitrogen, cat. 15140122), and 2.5% Matrigel (Corning Inc., Corning, NY, cat. 354248) for the first three passages. All PDCs were cultured in complete DMEM/F-12 media containing advanced DMEM/F-12 (Invitrogen, cat. 12634028), 4.9% defined fetal bovine serum, heat inactivated (HyClone Laboratories Inc., Logan, UT, cat. SH30070.03HI), 389 ng/mL hydrocortisone (Sigma-Aldrich, cat. H4001), 9.7 ng/mL human EGF recombinant protein (Invitrogen, cat. PHG0313), 23.4 microg/mL adenine (Sigma-Aldrich, cat. A2786), 97.3 U/mL penicillin-streptomycin (Invitrogen, cat. 15140122), 1.9 mM L-glutamine (Invitrogen, cat. 25030081), and 9.7 microM Y-27632 dihydrochloride (Tocris Bioscience, Bristol, United Kingdom, cat. 1254). The PDCs were cultured in complete DMEM/F12 media without 10 microM Y-27632 dihydrochloride for at least two passages prior to the screen. The established cell lines NCI-H1341 and […] were cultured in DMEM/F-12, HEPES (Invitrogen, cat. 11330032), 5% defined fetal bovine serum (HyClone Laboratories Inc., cat. SH30070.03), ITS premix universal culture supplement [insulin (5 microg/mL), transferrin (5 microg/mL), and selenious acid (5 ng/mL)] […]
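For viability, T/C in this document: spheroids mix tumor cells with HUVEC endothelium and human MSC stroma; luminescence taken as viability surrogate after a week of drug exposure.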

Compound	IC50 (curve of compound)	viability, T/C (compound 0.0316 µM)	viability, T/C (compound 0.1 µM)	viability, T/C (compound 0.316 µM)	viability, T/C (compound 1 µM)	viability, T/C (compound 3.16 µM)	viability, T/C (compound 10 µM)	also measured
CC(C)CC(NC(=O)C(Cc1ccccc1)NC(=O)c1cnccn1)B(O)O (stereo not drawn)	16.5 nM and 13.1 nM and 4.71 nM							viability, T/C (compound 0.000949 µM): 93.7% and 85.5% and 84.3%; viability, T/C (compound 0.003 µM): 94.1% and 71.8% and 78.5%; viability, T/C (compound 0.03 µM): 1.41% and 1.04% and 0.32%; viability, T/C (compound 0.0949 µM): 0.32% and 0.33% and 0.22%; viability, T/C (compound 0.3 µM): 0.33% and 0.39% (2×)
CC(C)c1c(-c2ccccc2)nc2c(C#N)c[nH]n2c1=O	> 10000 nM	86.8% and 83.8% and 96.4%	103% and 100% and 89.5%	96.2% and 76.9% and 87.5%	85.3% and 75.7% and 64.5%	88.3% and 95.4% and 70.7%	83.1% and 71.7% and 86.4%	
CC(CO)NC(=O)c1cc(-c2ccc(Cl)cc2)nn(-c2cnn(C)c2)c1=O (stereo not drawn)							87.4% [middle of 19 runs]	IC50 (compound alone, run of 05/31/2022): > 10000 nM
CC1COCCN1c1cc(C2(S(C)(=N)=O)CC2)nc(-c2ccnc3[nH]ccc23)n1 (stereo not drawn)	2470 nM and 2110 nM and 2160 nM	100% and 91.6% and 125%	108% and 93.5% and 106%	107% and 85.8% and 101%	114% and 85.9% and 106%	34.1% and 30.7% and 22.6%	18.6% and 15.7% and 17.3%	
CC[C@@]1(O)C(=O)OCc2c1cc1n(c2=O)Cc2cc3c(CN(C)C)c(O)ccc3nc2-1	52.7 nM and 21.7 nM and 17.1 nM	62.3% and 43.2% and 34.2%	33.1% and 22.1% and 23.6%					viability, T/C (compound 0.000316 µM): 93.2% and 80.6% and 77.3%; viability, T/C (compound 0.001 µM): 90.4% and 95% and 67.7%; viability, T/C (compound 0.00316 µM): 80.1% and 84.2% and 84.3%; viability, T/C (compound 0.01 µM): 86.6% and 65.1% and 63.1%
COc1cc(C2c3cc4c(cc3C(OC3OC5COC(C)OC5C(O)C3O)C3COC(=O)C23)OCO4)cc(OC)c1O (stereo not drawn)	1380 nM and 706 nM and 636 nM	92.5% and 85.2% and 81.7%	98.5% and 79.4% and 77%	76.4% and 80.6% and 66.2%	56.4% and 36.8% and 39.9%	36.9% and 23.6% and 22.1%	31% and 20.7% and 19.1%	
COc1cc(Nc2ncc3c(n2)-c2ccc(Cl)cc2C(c2c(F)cccc2OC)=NC3)ccc1C(=O)O	> 10000 nM and 8540 nM	77.4% and 67.8% and 86.3%	85.5% and 81.5% and 77.1%	58.4% and 76.3% and 50%	57.4% and 60% and 62%	82.1% and 66.4% and 67%	66.9% and 47.4% and 49.2%	

Now from value to compound, other results behind:

IC50 (curve of compound)	Compound	viability, T/C (compound 0.0316 µM)	viability, T/C (compound 0.1 µM)	viability, T/C (compound 0.316 µM)	viability, T/C (compound 1 µM)	viability, T/C (compound 3.16 µM)	viability, T/C (compound 10 µM)	also measured
> 10000 nM	CC1(C)CCC(CN2CCN(c3ccc(C(=O)NS(=O)(=O)c4ccc(NCC5CCOCC5)c([N+](=O)[O-])c4)c(Oc4cnc5[nH]ccc5c4)c3)CC2)=C(c2ccc(Cl)cc2)C1	96.5% and 101% and 99%	71.9% and 97.7% and 79.6%	105% and 111% and 106%	90.7% and 91% and 77.8%	96% and 87.3% and 90.5%	73.7% and 91.8% and 83.6%	
95.5 nM and 176 nM and 84.6 nM	CC1COCCN1c1cc(-c2ccnn2C)c2ccnc(-c3ccn[nH]3)c2n1 (stereo not drawn)	97.8% and 84.1% and 95.1%	48% and 79.2% and 42.4%	15.5% and 19.4% and 16.3%	19.2% and 18.6% and 16%			viability, T/C (compound 0.00316 µM): 96.3% and 94.8% and 101%; viability, T/C (compound 0.01 µM): 98.2% and 92.8% and 104%
> 3000 nM	CCN(c1cc(-c2ccc(CN3CCOCC3)cc2)cc(C(=O)NCc2c(C)cc(C)[nH]c2=O)c1C)C1CCOCC1							viability, T/C (compound 0.00949 µM): 104% and 116% and 106%; viability, T/C (compound 0.03 µM): 111% (2×) and 113%; viability, T/C (compound 0.0949 µM): 93.7% and 98.9% and 87%; viability, T/C (compound 0.3 µM): 97.9% and 94.6% and 81.7%; viability, T/C (compound 0.949 µM): 99.9% and 70.8% and 81.8%; viability, T/C (compound 3 µM): 96.3% and 84.7% and 88%
6.31 nM and 6.13 nM and 2.39 nM	CCc1c2c(nc3ccc(O)cc13)-c1cc3c(c(=O)n1C2)COC(=O)[C@]3(O)CC							viability, T/C (compound 0.000949 µM): 73.4% and 63.5% and 74.2%; viability, T/C (compound 0.003 µM): 71% and 71.7% and 44.2%; viability, T/C (compound 0.00949 µM): 38.3% and 39.2% and 18.2%; viability, T/C (compound 0.03 µM): 22% and 28.9% and 12%; viability, T/C (compound 0.0949 µM): 16.9% and 22.7% and 10%; viability, T/C (compound 0.3 µM): 14.9% and 13.4% and 8.11%
> 10000 nM and 6700 nM and 6430 nM	COc1ccc([C@@H](O)c2cc(-c3ncnc4cc(N5CCOCC5)ccc34)c(F)cc2Cl)nn1	103% and 74.5% and 83%	98.5% and 84.4% and 87.8%	104% and 83.6% and 80.7%	100% and 66.2% and 81.5%	75.2% and 63.6% and 64.8%	52% and 43.6% and 40.8%	

— PubChem BioAssay AID1918998 (Molecular Pharmacology Branch, DTP, NCI, 2023)
